The values below come from patent US9592210B2, “1-phenylalkanecarboxylic acid derivatives for the treatment of cognitive impairment” (Chiesi Farmaceutici S.p.A., priority 2011, dated 2017).

Series [1] concerns transgenic mouse models of AD. Particulars: cited from earlier work.
The target of series [2] is T1, COX-2 (Homo sapiens, UniProt P35354).
T1 sequence (P35354 18-604): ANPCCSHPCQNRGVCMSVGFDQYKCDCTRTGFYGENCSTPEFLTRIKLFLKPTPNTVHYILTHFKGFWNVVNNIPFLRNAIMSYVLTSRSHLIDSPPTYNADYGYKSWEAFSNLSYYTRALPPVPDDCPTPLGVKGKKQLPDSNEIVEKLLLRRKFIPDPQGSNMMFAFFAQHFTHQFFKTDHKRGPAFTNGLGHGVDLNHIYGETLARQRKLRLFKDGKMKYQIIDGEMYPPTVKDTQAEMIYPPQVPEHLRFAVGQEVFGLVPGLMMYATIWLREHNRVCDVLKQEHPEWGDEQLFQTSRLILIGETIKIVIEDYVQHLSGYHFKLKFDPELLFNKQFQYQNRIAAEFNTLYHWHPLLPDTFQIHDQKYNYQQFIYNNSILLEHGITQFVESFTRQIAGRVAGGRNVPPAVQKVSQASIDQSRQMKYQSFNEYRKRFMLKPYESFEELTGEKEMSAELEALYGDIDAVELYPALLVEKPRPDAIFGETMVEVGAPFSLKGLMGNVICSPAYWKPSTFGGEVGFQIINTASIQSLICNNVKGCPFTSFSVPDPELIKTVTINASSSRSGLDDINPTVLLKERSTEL
To be noted: concentrations up to 300 μM; cited from earlier work.

For series [3] the following is noted: dogs, cited from earlier work.
The subject of series [4] is human neuroglioma cells over-expressing the Swedish mutated APP (H4swe). Particulars: read-out: IC50 for lowering Aβ42 secretion; cited from earlier work.
Series [5] in a line: Object recognition test (preclinical). Particulars: preclinical stage. The series is classed as in vivo.
For series [6] the following is noted: mice, oral; cited from earlier work.
Series [7] can be described thus: Fear conditioning (preclinical). Format: in vivo. Particulars: preclinical studies.
Series [8] in a line: Morris water maze (preclinical). Format: in vivo. To be noted: preclinical study.
For series [9] the following is noted: rats, oral; cited from earlier work.
Series [10] has as its system NICD-responsive genes. Particulars: 100 μM; cited from earlier work.
The conditions of series [11]: species not given; follows mice and rats; cited from earlier work.
Series [12] concerns the target COX-1 (Homo sapiens, UniProt P23219). Particulars: concentrations up to 100 μM; cited from earlier work.
For series [13] the following is noted: guinea-pigs, cited from earlier work.
Series [14] concerns Notch intracellular cleavage in human embryonic kidney 293 swe cells. To be noted: 5 μM; cited from earlier work.
The test system of series [15] is γ-secretase. To be noted: cited from earlier work.
For series [16], the system named is γ-secretase. Particulars: cited from earlier work. This is another data set of the same source.
In series [17] the test system is dendritic spine density. Particulars: mice; cited from earlier work.
Series [18] concerns AD patients. Particulars: cited from earlier work.

Read-outs that look alike come from different tables or passages of the source.

Sequence of COX-1 (P23219 24-599): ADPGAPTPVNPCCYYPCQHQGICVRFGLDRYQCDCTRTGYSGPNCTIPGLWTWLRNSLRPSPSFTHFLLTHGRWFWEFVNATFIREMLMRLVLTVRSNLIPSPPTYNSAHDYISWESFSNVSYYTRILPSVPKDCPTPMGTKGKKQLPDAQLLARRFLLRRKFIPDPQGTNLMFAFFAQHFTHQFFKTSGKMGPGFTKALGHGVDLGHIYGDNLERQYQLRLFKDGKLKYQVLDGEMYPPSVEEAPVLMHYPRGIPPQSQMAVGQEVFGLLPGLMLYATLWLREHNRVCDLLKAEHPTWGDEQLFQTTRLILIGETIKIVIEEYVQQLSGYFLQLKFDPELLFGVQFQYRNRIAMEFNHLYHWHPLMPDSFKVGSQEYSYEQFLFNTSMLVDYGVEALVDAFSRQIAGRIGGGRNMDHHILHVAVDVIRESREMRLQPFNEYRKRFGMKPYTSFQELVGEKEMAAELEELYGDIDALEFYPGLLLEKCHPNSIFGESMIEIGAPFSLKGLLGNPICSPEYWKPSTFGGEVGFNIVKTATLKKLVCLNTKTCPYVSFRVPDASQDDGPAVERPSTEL

In the case of `O=C(O)C1(c2ccc(-c3ccc(Cl)c(Cl)c3)c(F)c2)CC1` [CHF 5074, 1-(3′,4′-dichloro-2-fluorobiphenyl-4-yl)cyclopropanecarboxylic acid], the tolerability entry in [1] (60 mg/kg/day, prolonged treatment for 4-9 months, mice) was “well tolerated”. The “neuropathological and behavioral activity” value in series [1] (oral doses of 60 mg/kg/day) is “active from neuropathological and behavioral points of view”. The “inhibitory activity on COX-2” value in series [2] is “does not display inhibitory activity”. Also, in [3] (oral), the “absorbed by oral route” value is recorded as 80-100%. The “plasma elimination t1/2” value in series [3] is “≈ 24 hours”. In addition, the IC50 in series [4] is 3.6 µM. Besides, the “object recognition test performance” value in [5] was “positive effects”. For the same molecule, the absorbed orally is given as 74% in series [6] and 50% in series [9]. Further, the fear conditioning performance entry in [7] was “significantly improved”. Besides, the “Morris water maze performance” value in series [8] was “marginal effects”. Besides, the “expression profile of several NICD-responsive genes” value in series [10] is “does not alter”. Moreover, the “brain levels as % of corresponding plasma concentrations” value in [11] is given as 3-14%. Moreover, in series [12], the “inhibitory activity on COX-1” value is “does not display inhibitory activity”. The “plasma elimination half-life t1/2” value in series [13] (after oral administration) is given as “≈ 30 hours”. Further, the brain penetration in series [13] was 3-9%. In series [14], the “effects on Notch intracellular cleavage” value was “no effects were observed”.

For `CC(C(=O)O)c1ccc(-c2ccccc2)c(F)c1` (stereo not drawn) [flurbiprofen], in series [15], the “formation of Aβ38” value is “increase” and the “production of Aβ42” value is “lower”.

For the molecule `CC(C)Cc1ccc(C(C)C(=O)O)cc1` (stereo not drawn) [ibuprofen], in series [15], the “formation of Aβ38” value is listed as “increase” and the “production of Aβ42” value was “lower”.

For the molecule `COc1ccc2c(c1)c(CC(=O)O)c(C)n2C(=O)c1ccc(Cl)cc1` [indomethacin], in series [15], the “formation of Aβ38” value is “increase” and the “production of Aβ42” value is recorded as “lower”.

For `CC(C)[C@H](O)C(=O)N[C@@H](C)C(=O)N[C@@H]1C(=O)N(C)CCc2ccccc21` [semagacestat], in [16] (brain and CSF), the “brain and CSF levels of Aβ42 peptide” value was “increase”. Besides, in series [16] (brain), the “brain level of C-terminal fragment of APP (CTFβ or C99)” value is on record as “accumulation”. Besides, the dendritic spine density entry in series [17] is on record as “decrease”. The “cognition and ability to complete activities of daily living versus placebo” value in series [18] (interim analysis of two Phase 3 trials) was “worsened over time to a statistically significantly higher rate”. For the same molecule, the “rate of skin cancer compared to placebo” value in series [18] (two 21-month Phase 3 trials, more than 2,600 AD patients) was “increased rate of skin cancer”.

As for `CSc1ccc(/C=C2/C(C)=C(CC(=O)O)c3cc(F)ccc32)cc1` [sulindac sulfide], in series [15], the “formation of Aβ38” value is given as “increase” and the “production of Aβ42” value was “lower”.

By IC50 is commonly meant the concentration at which inhibition is half-maximal.
